pIC50: −log10 of the molar value.
Test system: PDC 899932-113-R3-J6 complex spheroid viability
Experiment: Anticancer human tumor 899932-113-R3-J6-PDC patient-derived melanoma cell line growth inhibition [RAS]
Settings: for pIC50: curve of first compound; for viability, T/C: stronger effect = lower value
In short: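 Tumour cells grown as complex spheroids with HUVEC endothelial cells and mesenchymal stem cells, treated with RAS pathway inhibitor combinations. Each agent spans half-log steps from near clinical Cmax, or 10 microM where Cmax is unknown.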

[1] = second compound 0.000949 µM, first compound 0.0316 µM
[2] = second compound 0.000949 µM, first compound 0.1 µM
[3] = second compound 0.000949 µM, first compound 0.316 µM
[4] = second compound 0.000949 µM, first compound 1 µM
[5] = second compound 0.003 µM, first compound 0.0316 µM
[6] = second compound 0.003 µM, first compound 0.1 µM
[7] = second compound 0.003 µM, first compound 0.316 µM
[8] = second compound 0.003 µM, first compound 1 µM
[9] = second compound 0.00949 µM, first compound 0.0316 µM
[10] = second compound 0.00949 µM, first compound 0.1 µM
[11] = second compound 0.00949 µM, first compound 0.316 µM
[12] = second compound 0.00949 µM, first compound 1 µM
[13] = second compound 0.03 µM, first compound 0.0316 µM
[14] = second compound 0.03 µM, first compound 0.1 µM
[15] = second compound 0.03 µM, first compound 0.316 µM
[16] = second compound 0.03 µM, first compound 1 µM
[17] = second compound 0.0949 µM, first compound 0.0316 µM
[18] = second compound 0.0949 µM, first compound 0.1 µM
[19] = second compound 0.0949 µM, first compound 0.316 µM
[20] = second compound 0.0949 µM, first compound 1 µM
[21] = second compound 0.3 µM, first compound 0.0316 µM
[22] = second compound 0.3 µM, first compound 0.1 µM
[23] = second compound 0.3 µM, first compound 0.316 µM
[24] = second compound 0.3 µM, first compound 1 µM
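Throughout, for viability, T/C: spheroids exposed to agents for seven days before readout; 100% = DMSO vehicle control wells.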

Structure (SMILES): CC(Nc1ccc2c(c1)OCCn1cc(N3C(=O)OCC3C(F)F)nc1-2)C(N)=O (centres undefined) + CCn1c(-c2cc(N3CCN(C)CC3)cnc2C(C)OC)c2c3cc(ccc31)-c1csc(n1)CC(NC(=O)C1CC1C)C(=O)N1CCCC(N1)C(=O)OCC(C)(C)C2
- pIC50 (second compound 0.000949 µM): 6.89
- pIC50 (second compound 0.003 µM): > 7.50
- pIC50 (second compound 0.00949 µM): > 7.50
- pIC50 (second compound 0.03 µM): > 7.50
- pIC50 (second compound 0.0949 µM): > 7.50
- pIC50 (second compound 0.3 µM): > 7.50
- viability, T/C [1]: 64.5%
- viability, T/C [2]: 49.2%
- viability, T/C [3]: 39.7%
- viability, T/C [4]: 38.6%
- viability, T/C (second compound 0.000949 µM, first compound 3.16 µM): 29.7%
- viability, T/C (second compound 0.000949 µM, first compound 10 µM): 19.4%
- viability, T/C [5]: 26.1%
- viability, T/C [6]: 19.6%
- viability, T/C [7]: 15.7%
- viability, T/C [8]: 11.4%
- viability, T/C (second compound 0.003 µM, first compound 3.16 µM): 9.07%
- viability, T/C (second compound 0.003 µM, first compound 10 µM): 7.98%
- viability, T/C [9]: 2.72%
- viability, T/C [10]: 1.99%
- viability, T/C [11]: 1.32%
- viability, T/C [12]: 1.55%
- viability, T/C (second compound 0.00949 µM, first compound 3.16 µM): 0.87%
- viability, T/C (second compound 0.00949 µM, first compound 10 µM): 0.68%
- viability, T/C [13]: 2.18%
- viability, T/C [14]: 1.47%
- viability, T/C [15]: 0.93%
- viability, T/C [16]: 0.68%
- viability, T/C (second compound 0.03 µM, first compound 3.16 µM): 0.45%
- viability, T/C (second compound 0.03 µM, first compound 10 µM): 0.32%
- viability, T/C [17]: 1.46%
- viability, T/C [18]: 1.18%
- viability, T/C [19]: 0.72%
- viability, T/C [20]: 0.45%
- viability, T/C (second compound 0.0949 µM, first compound 3.16 µM): 0.31%
- viability, T/C (second compound 0.0949 µM, first compound 10 µM): 0.62%
- viability, T/C [21]: 1.36%
- viability, T/C [22]: 0.73%
- viability, T/C [23]: 0.51%
- viability, T/C [24]: 0.35%
- viability, T/C (second compound 0.3 µM, first compound 3.16 µM): 0.22%
- viability, T/C (second compound 0.3 µM, first compound 10 µM): 0.52%

Structure (SMILES): O=C(c1ccc(F)c(F)c1Nc1ccc(I)cc1F)N1CC(O)([C@@H]2CCCCN2)C1 + CCn1c(-c2cc(N3CCN(C)CC3)cnc2C(C)OC)c2c3cc(ccc31)-c1csc(n1)CC(NC(=O)C1CC1C)C(=O)N1CCCC(N1)C(=O)OCC(C)(C)C2
- pIC50 (second compound 0.000949 µM): > 8.50
- pIC50 (second compound 0.003 µM): > 8.50
- pIC50 (second compound 0.00949 µM): > 8.50
- pIC50 (second compound 0.03 µM): > 8.50
- pIC50 (second compound 0.0949 µM): > 8.50
- pIC50 (second compound 0.3 µM): > 8.50
- viability, T/C (second compound 0.000949 µM, first compound 0.00316 µM): 39.5%
- viability, T/C (second compound 0.000949 µM, first compound 0.01 µM): 11.1%
- viability, T/C [1]: 2.22%
- viability, T/C [2]: 1.79%
- viability, T/C [3]: 0.22%
- viability, T/C [4]: 0.2%
- viability, T/C (second compound 0.003 µM, first compound 0.00316 µM): 13.7%
- viability, T/C (second compound 0.003 µM, first compound 0.01 µM): 2.9%
- viability, T/C [5]: 2.47%
- viability, T/C [6]: 1.41%
- viability, T/C [7]: 0.18%
- viability, T/C [8]: 0.12%
- viability, T/C (second compound 0.00949 µM, first compound 0.00316 µM): 3.2%
- viability, T/C (second compound 0.00949 µM, first compound 0.01 µM): 2.49%
- viability, T/C [9]: 1.79%
- viability, T/C [10]: 0.56%
- viability, T/C [11]: 0.06%
- viability, T/C [12]: 0.13%
- viability, T/C (second compound 0.03 µM, first compound 0.00316 µM): 2.9%
- viability, T/C (second compound 0.03 µM, first compound 0.01 µM): 2.26%
- viability, T/C [13]: 1.17%
- viability, T/C [14]: 0.14%
- viability, T/C [15]: 0.07%
- viability, T/C [16]: 0.11%
- viability, T/C (second compound 0.0949 µM, first compound 0.00316 µM): 1.79%
- viability, T/C (second compound 0.0949 µM, first compound 0.01 µM): 1.48%
- viability, T/C [17]: 0.57%
- viability, T/C [18]: 0.07%
- viability, T/C [19]: 0.1%
- viability, T/C [20]: 0.13%
- viability, T/C (second compound 0.3 µM, first compound 0.00316 µM): 1.39%
- viability, T/C (second compound 0.3 µM, first compound 0.01 µM): 1.61%
- viability, T/C [21]: 0.46%
- viability, T/C [22]: 0.12%
- viability, T/C [23]: 0.17%
- viability, T/C [24]: 0.17%
